Results on three molecules are retold here after ChEMBL document CHEMBL1150025, “Synthesis of and glycosidase inhibition by -l-homofuconojirimycin” (Bioorg Med Chem Lett, 1993).

In data set [1] the test system is Canavalia ensiformis. The experiment in a line: Percent inhibition against alpha-D-mannosidase from jack bean at 1 mM concentration.
Data set [2] relates to Clostridium perfringens. In words: Percent inhibition against neuraminidase from Type X, Clostridium perfringens at 1 mM concentration.
Substrate in data set [3]: Cc1cc(=O)oc2cc(OC3O[C@H](C)[C@H](O)[C@H](O)[C@H]3O)ccc12
In words: The Michaelis-Menten constant against alpha-L-fucosidase from solubilized human neutrophils was determined.

In the case of `CC1NC(CO)[C@@H](O)C(O)[C@@H]1O` (single isomer, unassigned), the inhibition in data set [1] and in data set [2] was 0% each time.

With `C[C@@H]1NC[C@@H](O)[C@H](O)[C@@H]1O`, the inhibition in data set [1] was 83%; in data set [2], 50%.

B1: Plasma alpha-L-fucosidase (Homo sapiens), Q9BTY2 (protein)
chain: MRPQELPRLAFPLLLLLLLLLPPPPCPAHSATRFDPTWESLDARQLPAWFDQAKFGIFIHWGVFSVPSFGSEWFWWYWQKEKIPKYVEFMKDNYPPSFKYEDFGPLFTAKFFNANQWADIFQASGAKYIVLTSKHHEGFTLWGSEYSWNWNAIDEGPKRDIVKELEVAIRNRTDLRFGLYYSLFEWFHPLFLEDESSSFHKRQFPVSKTLPELYELVNNYQPEVLWSDGDGGAPDQYWNSTGFLAWLYNESPVRGTVVTNDRWGAGSICKHGGFYTCSDRYNPGHLLPHKWENCMTIDKLSWGYRREAGISDYLTIEELVKQLVETVSCGGNLLMNIGPTLDGTISVVFEERLRQMGSWLKVNGEAIYETHTWRSQNDTVTPDVWYTSKPKEKLVYAIFLKWPTSGQLFLGHPKAILGATEVKLLGHGQPLNWISLEQNGIMVELPQLTIHQMPCKWGWALALTNVI
For B1, in data set [3], the Km worked out at 250 µM.
